Laboratory results as given in patent publication US20240327382A1 (ALMAC DISCOVERY LIMITED, priority 2021, published 2024).

Molecular target: T1, Full-length USP19 (Homo sapiens, UniProt O94966)
T1 construct: Full-length USP19 was purchased from Boston Biochem (E-576); purchased Boston Biochem E-576
T1 sequence (O94966 1-1318): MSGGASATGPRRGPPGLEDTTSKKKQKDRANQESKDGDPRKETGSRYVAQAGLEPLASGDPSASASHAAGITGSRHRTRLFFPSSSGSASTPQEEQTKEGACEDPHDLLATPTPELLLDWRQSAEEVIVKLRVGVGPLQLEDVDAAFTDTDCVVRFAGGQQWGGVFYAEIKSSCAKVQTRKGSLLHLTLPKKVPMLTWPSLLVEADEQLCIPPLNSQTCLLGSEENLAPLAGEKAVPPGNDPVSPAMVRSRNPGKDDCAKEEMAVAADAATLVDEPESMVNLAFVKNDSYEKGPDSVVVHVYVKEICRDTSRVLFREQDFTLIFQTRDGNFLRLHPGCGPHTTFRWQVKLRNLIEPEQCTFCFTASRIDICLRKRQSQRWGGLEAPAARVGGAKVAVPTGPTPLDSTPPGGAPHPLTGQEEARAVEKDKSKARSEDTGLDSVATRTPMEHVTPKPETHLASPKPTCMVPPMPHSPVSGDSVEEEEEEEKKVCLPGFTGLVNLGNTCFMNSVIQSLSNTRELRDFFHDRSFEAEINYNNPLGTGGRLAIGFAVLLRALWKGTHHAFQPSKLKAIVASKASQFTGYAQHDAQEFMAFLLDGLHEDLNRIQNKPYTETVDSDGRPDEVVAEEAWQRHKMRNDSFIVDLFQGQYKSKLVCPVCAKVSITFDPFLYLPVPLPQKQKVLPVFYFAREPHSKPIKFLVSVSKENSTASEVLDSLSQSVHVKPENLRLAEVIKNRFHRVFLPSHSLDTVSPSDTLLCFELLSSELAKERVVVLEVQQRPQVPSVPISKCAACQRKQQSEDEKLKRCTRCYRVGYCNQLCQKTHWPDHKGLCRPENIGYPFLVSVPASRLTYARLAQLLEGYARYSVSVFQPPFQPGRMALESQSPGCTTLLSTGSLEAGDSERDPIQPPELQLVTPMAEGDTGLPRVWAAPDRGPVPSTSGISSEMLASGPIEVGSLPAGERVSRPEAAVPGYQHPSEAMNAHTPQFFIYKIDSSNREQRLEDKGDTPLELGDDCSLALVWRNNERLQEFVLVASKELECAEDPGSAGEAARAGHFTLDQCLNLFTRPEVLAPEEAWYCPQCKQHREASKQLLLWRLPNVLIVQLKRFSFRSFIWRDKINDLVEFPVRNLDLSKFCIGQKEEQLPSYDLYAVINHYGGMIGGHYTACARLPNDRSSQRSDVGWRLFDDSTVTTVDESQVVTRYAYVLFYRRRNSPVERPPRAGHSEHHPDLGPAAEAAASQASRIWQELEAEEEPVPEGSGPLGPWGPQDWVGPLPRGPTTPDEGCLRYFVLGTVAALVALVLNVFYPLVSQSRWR
Experiment: USP19 fluorescence polarisation (FP) assay, Ubiquitin-Lys-TAMRA substrate
Format: biochemical
Conditions: average of at least two duplicate experiments
Protocol: USP19 activity was determined in a fluorescence polarisation (FP) homogeneous assay using the isopeptide Ubiquitin-Lys-TAMRA substrate (either AUB-101, Almac Sciences Scotland Limited, or U-558, Boston Biochem, both of which gave identical results). Full-length USP19 was purchased from Boston Biochem (E-576). Unless otherwise stated, all other reagents were purchased from Sigma. Enzymatic reactions were conducted in black flat bottom polystyrene 384-well plates (Nunc) and 30 μL total volume. USP19 (2.5 nM, 10 μL) was incubated in assay buffer (50 mM HEPES (pH 7.4), 150 mM NaCl, 5 mM DTT, 0.05% BSA (w/v), 0.05% CHAPS) in the presence or absence of inhibitor (10 μL). Inhibitors were stored as 10 mM DMSO stocks in an inert environment (low humidity, dark, low oxygen, rt) using the StoragePod® system (Roylan Developments) and serial dilutions were prepared in buffer just prior to the assay (from 200 μM to 2 μM, 8-18 data point curve). Following incubation at RT for 30 min, the enzymatic reactions were initiated by dispensing the Ub substrate (500 nM, 10 μL). FP was measured every 15 min over a period of 90 min (within the linear range of the assay) using a Synergy 4 plate reader (BioTek) exciting at 530 nm and measuring the amount of parallel and perpendicular light at 575 nm. The FP signal was subsequently normalised to the no compound control. Data were plotted and fitted, and the concentrations resulting in 50% inhibition (IC50) were calculated using the non-linear regression curve fitting model using GraphPad (Prism). IC50 values for the inhibitors of the invention are compiled in Tables 1 and 3 and represent the average of at least two duplicate experiments.

SMILES	IC50 [nM]
O=C(N[C@@H]1CCN(C(=O)N2CC[C@@H](Cn3cnc(-c4ccccc4)cc3=O)C3(CCCC3)C2)[C@H](c2cc(F)ccc2F)C1)c1ccccn1 [Example 165, N-((2S,4R)-2-(2,5-Difluorophenyl)-1-((R)-10-((6-oxo-4-phenylpyrimidin-1(6H)-yl)methyl)-7-azaspiro[4.5]decane-7-carbonyl)piperidin-4-yl)picolinamide]	10 to 100
CN[C@@H]1CCN(C(=O)N2CC[C@@H](Cn3ccc(-c4ccccc4OC)cc3=O)C3(CCCC3)C2)[C@H](c2ccccc2F)C1 [Example 118, 1-(((R)-7-((2S,4R)-2-(2-Fluorophenyl)-4-(methylamino)piperidine-1-carbonyl)-7-azaspiro[4.5]decan-10-yl)methyl)-4-(2-methoxyphenyl)pyridin-2(1H)-one]	< 10
Cc1ccccc1-c1cc(=O)n(C[C@@H]2CCN(C(=O)N3CC[C@@H](N)C[C@H]3c3ccccc3)CC23CCCC3)cn1 [Example 77, 3-(((R)-7-((2,4R)-4-Amino-2-phenylpiperidine-1-carbonyl)-7-azaspiro[4.5]decan-10-yl)methyl)-6-(o-tolyl)pyrimidin-4(3H)-one]	< 10
N[C@@H]1CCN(C(=O)N2CCC(Cn3cnc(-c4ccccc4)cc3=O)CC2)[C@H](c2ccccc2)C1 [Example 9, 3-((1-((2S,4R)-4-Amino-2-phenylpiperidine-1-carbonyl)piperidin-4-yl)methyl)-6-phenylpyrimidin-4(3H)-one]	10 to 100
COc1ccccc1-c1cc(=O)n(C[C@@H]2CCN(C(=O)N3CCNC[C@H]3c3cccc(F)c3)CC23CCCC3)cn1 [Example 115, 3-(((R)-7-((R)-2-(3-Fluorophenyl)piperazine-1-carbonyl)-7-azaspiro[4.5]decan-10-yl)methyl)-6-(2-methoxyphenyl)pyrimidin-4(3H)-one]	< 10
O=C(N1CCC(Cn2ccc(-c3ccccc3)cc2=O)CC1)N1CCNC[C@H]1c1cc(F)ccc1F [Example 22, (R)-1-((1-(2-(2,5-Difluorophenyl)piperazine-1-carbonyl)piperidin-4-yl)methyl)-4-phenylpyridin-2(1H)-one]	10 to 100
CCN[C@@H]1CCN(C(=O)N2CC[C@@H](Cn3cnc(-c4ccccc4)cc3=O)C3(CCCC3)C2)[C@H](c2cc(F)ccc2F)C1 [Example 156, 3-(((R)-7-((2S,4R)-2-(2,5-Difluorophenyl)-4-(ethylamino)piperidine-1-carbonyl)-7-azaspiro[4.5]decan-10-yl)methyl)-6-phenylpyrimidin-4(3H)-one]	< 10
CN[C@@H]1CCN(C(=O)N2CC[C@@H](Cn3cnc(-c4ccccc4F)cc3=O)C3(CCCC3)C2)[C@H](c2ccc(F)c(F)c2)C1 [Example 142, 3-(((R)-7-((2S,4R)-2-(3,4-Difluorophenyl)-4-(methylamino)piperidine-1-carbonyl)-7-azaspiro[4.5]decan-10-yl)methyl)-6-(2-fluorophenyl)pyrimidin-4(3H)-one]	< 10
CN[C@@H]1CCN(C(=O)N2CC[C@@H](CN3CC(c4ccccc4)=CC3=O)C3(CCCC3)C2)[C@H](c2cc(F)ccc2F)C1 [Example 178, 1-(((R)-7-((2S,4R)-2-(2,5-Difluorophenyl)-4-(methylamino)piperidine-1-carbonyl)-7-azaspiro[4.5]decan-10-yl)methyl)-4-phenyl-1,5-dihydro-2H-pyrrol-2-one]	10 to 100
CCN[C@@H]1CCN(C(=O)N2CC[C@@H](Cn3cnc(-c4ccccc4)cc3=O)C3(CCCC3)C2)[C@H](c2ccccc2)C1 [Example 62, 3-(((R)-7-((2S,4R)-4-(Ethylamino)-2-phenylpiperidine-1-carbonyl)-7-azaspiro[4.5]decan-10-yl)methyl)-6-phenylpyrimidin-4(3H)-one]	< 10
N[C@@H]1CCN(C(=O)N2CCC(Cn3cnc(C(F)(F)F)cc3=O)C3(CCCC3)C2)[C@H](c2ccccc2)C1 (stereo partly drawn) [Example 34, 3-((7-((2S,4R)-4-Amino-2-phenylpiperidine-1-carbonyl)-7-azaspiro[4.5]decan-10-yl)methyl)-6-(trifluoromethyl) pyrimidin-4(3H)-one]	10 to 100
O=C(N1CC[C@@H](Cn2cnc(C(F)F)cc2=O)C2(CCCC2)C1)N1CC[C@@H](NCC(F)F)C[C@H]1c1cc(F)ccc1F [Example 152, 3-(((R)-7-((2S,4R)-4-((2,2-Difluoroethyl)amino)-2-(2,5-difluorophenyl)piperidine-1-carbonyl)-7-azaspiro[4.5]decan-10-yl)methyl)-6-(difluoromethyl)pyrimidin-4(3H)-one]	10 to 100
O=C(N1CC[C@@H](Cn2ccc(-c3ccccc3)cc2=O)C2(CCCC2)C1)N1CC[C@@H](NC2(CF)COC2)C[C@H]1c1ccccc1 [Example 112, 1-(((R)-7-((2S,4R)-4-((3-(Fluoromethyl)oxetan-3-yl)amino)-2-phenylpiperidine-1-carbonyl)-7-azaspiro[4.5]decan-10-yl)methyl)-4-phenylpyridin-2(1H)-one]	10 to 100
N[C@@H]1CCN(C(=O)N2CCC(Cn3cnc(C(F)F)cc3=O)C3(CCCC3)C2)[C@H](c2ccccc2)C1 (stereo partly drawn) [Example 28, 3-((7-((2S,4R)-4-Amino-2-phenylpiperidine-1-carbonyl)-7-azaspiro[4.5]decan-10-yl)methyl)-6-(difluoromethyl) pyrimidin-4(3H)-one]	10 to 100
CC[C@@H]1C[C@H](N)CCN1C(=O)N1CC[C@@H](Cn2ccc(-c3ccccc3)cc2=O)C2(CCCC2)C1 [Example 68, 1-(((R)-7-((2R,4R)-4-Amino-2-ethylpiperidine-1-carbonyl)-7-azaspiro[4.5]decan-10-yl)methyl)-4-phenylpyridin-2(1H)-one]	10 to 100
O=C(N1CC=C(Cn2cnc(-c3ccccc3)cc2=O)C2(CCCC2)C1)N1CCNC[C@H]1c1ccccc1 (single isomer, unassigned) [Example 2]	10 to 100
O=C(N1CC[C@@H](Cn2cnc(-c3ccccc3)cc2=O)C2(CCCC2)C1)N1CC[C@@H](NCc2ccc(F)cn2)C[C@H]1c1ccccc1 [Example 148, 3-(((R)-7-((2S,4R)-4-(((5-Fluoropyridin-2-yl)methyl)amino)-2-phenylpiperidine-1-carbonyl)-7-azaspiro[4.5]decan-10-yl)methyl)-6-phenylpyrimidin-4(3H)-one]	< 10
CN[C@@H]1CCN(C(=O)N2CC[C@@H](Cn3cnc4ccc(F)cc4c3=O)C3(CCCC3)C2)[C@H](c2cccc(F)c2)C1 [Example 167, 6-Fluoro-3-(((R)-7-((2S,4R)-2-(3-fluorophenyl)-4-(methylamino)piperidine-1-carbonyl)-7-azaspiro[4.5]decan-10-yl)methyl)quinazolin-4(3H)-one]	< 10
O=C(N1CC[C@@H](Cn2ccc(-c3ccccc3)cc2=O)C2(CCCC2)C1)N1CC[C@@H](O)C[C@H]1c1ccccc1 [Example 44, 1-(((R)-7-((2S,4R)-4-Hydroxy-2-phenylpiperidine-1-carbonyl)-7-azaspiro[4.5]decan-10-yl)methyl)-4-phenylpyridin-2(1H)-one]	10 to 100
